Patent US20250282768A1 (Janssen Pharmaceutica NV, priority 2022, published 2025)

System: p-IKKa levels in L363 (NIK translocated multiple myeloma) cells
Test: Assay 2: Effect of compounds on p-IKKa levels in L363 (NIK translocated multiple myeloma) cells
Type: cell-based
Conditions: Homo sapiens, L-363, 6 h, read-out: Assay 2 IC50 (nM), p-IKKa (Ser 176/180) in BAFF stimulated L363 cells with MG132, 6 h; average if tested more than once
Experimental: Assay 2: Effect of Compounds on p-IKKa Levels in L363 (NIK Translocated Multiple Myeloma) Cells
All compounds tested were dissolved and serially diluted in DMSO, 1:3 dilution for 11 points in an Echo compatible plate. 100% DMSO was added to columns 12 and 24 of the plate to serve as high and low signal controls. This compound plate was used to spot 20 nL of compound or DMSO into a Greiner 384 well TC plate (781080). The final DMSO concentration was 0.3% (v/v) in cell assays. Human L363 cells (ATCC) were cultured in RPM11640 medium supplemented with GlutaMax, non-essential amino acids, sodium pyruvate and 10% fetal bovine serum. Cells were routinely maintained at densities of 0.2×10^6 cells per ml—2×10^6 cells per mL at 37° C. in a humidified 5% CO2 atmosphere incubator. Cells were passaged twice a week splitting back to obtain the low density. The day before the assay, cells were washed twice in HBSS (Hank's Balanced Salt Solution), resuspended in Dulbecco's Modified Eagle Medium (DMEM)+0.5% IgG and protease free BSA (Jackson Immuno Research Laboratories), +/−250 ng/ml recombinant human B-cell activating factor (BAFF/BLyS/TNFSF13B) and incubated overnight at 37° C. in a humidified 5% CO2 atmosphere (bulk stimulation with or without BAFF). The next day, the cell concentration was adjusted to 1×10^7 cells/ml in DMEM+/−250 ng/ml BAFF +/−10 μM MG132 and plated at 10 μl/well into compound or DMSO spotted 384 well TC plates. Seeded cells were incubated at 37° C. in a humidified 5% CO2 atmosphere for 6 h. After 6 h, the plates were removed from the incubator and cell lysis was achieved by the addition of 2.5 μl 5×lysis buffer containing protease and phosphatase inhibitors, followed by shaking on a plate shaker at room temperature for 15 min. At the end of this incubation, lysed cells were sequentially treated and incubated with acceptor and donor bead mixes according to the manufacturer's protocol for a 1 plate/2-incubation suspension cell assay (AlphaLISA SureFire Ultra p-IKKa (Ser 176/180) Assay Kit (Perkin Elmer). Plates were read using an EnVision Multilabel Plate Reader (Perkin Elmer). Within an experiment, a concentration response curve for each compound was run in duplicate. The signal obtained in the test wells was normalized using high signal (BAFF stimulated cells, DMSO, MG132) and low signal (unstimulated cells, DMSO) controls. To determine the IC50, a sigmoidal curve was fitted to the plot of % inhibition versus Log10 compound concentration.

Compound | IC50
CC1OCCn2ncc(Nc3nccc(-c4cccc(-c5cc([C@@]6(O)C(=O)N(C)CC6(F)F)on5)n4)n3)c21 (single isomer, unassigned) [Example 116, (R)-4,4-Difluoro-3-hydroxy-1-methyl-3-(3-(6-(2-(((*R)-4-methyl-6,7-dihydro-4H-pyrazolo[5,1-c][1,4]oxazin-3-yl)amino)pyrimidin-4-yl)pyridin-2-yl)isoxazol-5-yl)pyrrolidin-2-one] | 50 to 500 nM
C[C@@H](Nc1nccc(-c2cccc(-n3cc([C@]4(O)CCN(C)C4=O)nn3)n2)n1)c1cnn(C)c1 (single isomer, unassigned) [Example 118] | > 500 nM
C[C@H](Nc1nccc(-c2cccc(-n3cc([C@]4(O)CCN(C)C4=O)nn3)n2)n1)c1cnn(C)c1 (single isomer, unassigned) [Example 119] | < 50 nM
CN1CC[C@@](O)(c2cc(-c3cccc(-c4ccnc(Nc5cnn(C)c5C(F)(F)F)n4)n3)no2)C1=O (single isomer, unassigned) [Example 132, (*R)-3-Hydroxy-1-methyl-3-(3-(6-(2-((1-methyl-5-(trifluoromethyl)-1H-pyrazol-4-yl)amino)pyrimidin-4-yl)pyridin-2-yl)isoxazol-5-yl)pyrrolidin-2-one] | < 50 nM
CN1CC[C@@](O)(c2cc(-c3cccc(-c4ccnc(Nc5cnn([C@H]6CCN(C7COC7)C6)c5)n4)n3)no2)C1=O (single isomer, unassigned) [Example 140] | < 50 nM
CN1CC[C@@](O)(c2cc(-c3cccc(-c4ccnc(Nc5cnn([C@@H]6CCN(C7COC7)C6)c5)n4)n3)no2)C1=O (single isomer, unassigned) [Example 141] | < 50 nM
C[C@@H](Nc1nccc(-c2cccc(-n3cc([C@]4(O)CCN(C)C4=O)nn3)n2)n1)c1ncccn1 (single isomer, unassigned) [Example 142] | 50 to 500 nM
C[C@H](Nc1nccc(-c2cccc(-n3cc([C@]4(O)CCN(C)C4=O)nn3)n2)n1)c1ncccn1 (single isomer, unassigned) [Example 143] | 50 to 500 nM
C[C@@H](Nc1nccc(-c2cccc(-c3cc([C@]4(O)CCN(C)C4=O)on3)n2)n1)c1cn[nH]c1 (single isomer, unassigned) [Example 148] | < 50 nM
C[C@H](Nc1nccc(-c2cccc(-c3cc([C@]4(O)CCN(C)C4=O)on3)n2)n1)c1cn[nH]c1 (single isomer, unassigned) [Example 149] | 50 to 500 nM
Cc1noc([C@@H](C)Nc2nccc(-c3cccc(-c4cc([C@]5(O)CCN(C)C5=O)on4)n3)n2)n1 (single isomer, unassigned) [Example 150] | 50 to 500 nM
Cc1noc([C@H](C)Nc2nccc(-c3cccc(-c4cc([C@]5(O)CCN(C)C5=O)on4)n3)n2)n1 (single isomer, unassigned) [Example 151] | 50 to 500 nM
C[C@@H](Nc1nccc(-c2cccc(-c3cc([C@]4(O)CCN(C)C4=O)on3)n2)n1)c1ccncc1 (single isomer, unassigned) [Example 154] | 50 to 500 nM
C[C@H](Nc1nccc(-c2cccc(-c3cc([C@]4(O)CCN(C)C4=O)on3)n2)n1)c1ccncc1 (single isomer, unassigned) [Example 155] | 50 to 500 nM
Cc1cccnc1[C@@H](C)Nc1nccc(-c2cccc(-c3cc([C@]4(O)CCN(C)C4=O)on3)n2)n1 (single isomer, unassigned) [Example 156] | 50 to 500 nM
Cc1cccnc1[C@H](C)Nc1nccc(-c2cccc(-c3cc([C@]4(O)CCN(C)C4=O)on3)n2)n1 (single isomer, unassigned) [Example 157] | > 500 nM
C[C@@H](Nc1nccc(-c2cccc(-c3cc([C@]4(O)CCN(C)C4=O)on3)n2)n1)c1cnc2ccccn12 (single isomer, unassigned) [Example 160] | > 500 nM
C[C@H](Nc1nccc(-c2cccc(-c3cc([C@]4(O)CCN(C)C4=O)on3)n2)n1)c1cnc2ccccn12 (single isomer, unassigned) [Example 161] | 50 to 500 nM
CC(C)[C@@H](Nc1nccc(-c2cccc(-c3cc([C@]4(O)CCN(C)C4=O)on3)n2)n1)c1cnn(C)c1 (single isomer, unassigned) [Example 162] | > 500 nM
CC(C)[C@H](Nc1nccc(-c2cccc(-c3cc([C@]4(O)CCN(C)C4=O)on3)n2)n1)c1cnn(C)c1 (single isomer, unassigned) [Example 163] | 50 to 500 nM
C[C@@H](Nc1nccc(-c2cccc(-c3cc([C@]4(O)CCN(C)C4=O)on3)n2)n1)c1ccn2ccnc2c1 (single isomer, unassigned) [Example 164] | > 500 nM
C[C@H](Nc1nccc(-c2cccc(-c3cc([C@]4(O)CCN(C)C4=O)on3)n2)n1)c1ccn2ccnc2c1 (single isomer, unassigned) [Example 165] | 50 to 500 nM
CN1CC[C@@](O)(c2cc(-c3cccc(-c4ccnc(Nc5ccn(C)n5)n4)n3)n(C)n2)C1=O (single isomer, unassigned) [Example 166, (*R)-3-Hydroxy-1-methyl-3-(1-methyl-5-(6-(2-((1-methyl-1H-pyrazol-3-yl)amino)pyrimidin-4-yl)pyridin-2-yl)-1H-pyrazol-3-yl)pyrrolidin-2-one] | > 500 nM
COc1nn(CC(F)F)cc1Nc1nccc(-c2cccc(-c3cnc([C@]4(O)CCN(C)C4=O)s3)n2)n1 (single isomer, unassigned) [Example 188, (*R)-3-(5-(6-(2-((1-(2,2-Difluoroethyl)-3-methoxy-1H-pyrazol-4-yl)amino)pyrimidin-4-yl)pyridin-2-yl)thiazol-2-yl)-3-hydroxy-1-methylpyrrolidin-2-one] | < 50 nM
COc1nn(CC(F)F)cc1Nc1nccc(-c2cccc(-c3cc([C@@]4(O)CCN(C)C4=O)n[nH]3)n2)n1 (single isomer, unassigned) [Example 189, (*R)-3-(5-(6-(2-((1-(2,2-Difluoroethyl)-3-methoxy-1H-pyrazol-4-yl)amino)pyrimidin-4-yl)pyridin-2-yl)-1H-pyrazol-3-yl)-3-hydroxy-1-methylpyrrolidin-2-one] | < 50 nM
CC1OCCn2ncc(Nc3nccc(-c4cccc(-c5cc([C@]6(O)CCN(C)C6=O)on5)n4)n3)c21 (single isomer, unassigned) [Example 195, (R)-3-Hydroxy-1-methyl-3-(3-(6-(2-(((*R)-4-methyl-6,7-dihydro-4H-pyrazolo[5,1-c][1,4]oxazin-3-yl)amino)pyrimidin-4-yl)pyridin-2-yl)isoxazol-5-yl)pyrrolidin-2-one] | < 50 nM
CN1CC[C@@](O)(c2cc(-c3cccc(-c4ccnc(Nc5cnn(C)c5C(F)F)n4)n3)no2)C1=O (single isomer, unassigned) [Example 198, (*R)-3-(3-(6-(2-((5-(Difluoromethyl)-1-methyl-1H-pyrazol-4-yl)amino)pyrimidin-4-yl)pyridin-2-yl)isoxazol-5-yl)-3-hydroxy-1-methylpyrrolidin-2-one] | < 50 nM
COCCn1ccc(Nc2nccc(-c3cccc(-c4cc([C@]5(O)CCN(C)C5=O)on4)n3)n2)n1 (single isomer, unassigned) [Example 199, (*R)-3-Hydroxy-3-(3-(6-(2-((1-(2-methoxyethyl)-1H-pyrazol-3-yl)amino)pyrimidin-4-yl)pyridin-2-yl)isoxazol-5-yl)-1-methylpyrrolidin-2-one] | < 50 nM
CN1CC[C@H](n2cc(Nc3nccc(-c4cccc(-c5cc([C@]6(O)CCN(C)C6=O)on5)n4)n3)cn2)[C@@H](F)C1 (single isomer, unassigned) [Example 201] | < 50 nM
